According to patent US9562076B2, “Hydrophobic modified pres-derived peptides of hepatitis B virus (HBV) and their use as HBV and HDV entry inhibitors” (priority 2008, dated 2017):
Ends that are not written are not given here.

System: HBV of genotype D
Format: cell-based, hepatitis B virus
Details: for IC90: HepaRG cells, HBV genotype D inoculum, HBsAg, Table 1
Description: HepaRG cells were grown in William's E medium supplemented with 10% fetal calf serum (FCS), 100 units/ml penicillin, 100 μg/ml streptomycin, 5 μg/ml insulin and 5×10^−5 M hydrocortisone hemisuccinate (16). Cells were passaged 1/5 every two weeks by trypsination. Two to three weeks before infection cell differentiation was induced by adding 2% DMSO into the maintenance medium. The medium was exchanged every 2-3 days.
As an infectious inoculum, a 50-fold concentrated culture supernatant of HepG2 clone 2.2.15 (23) cells was used, because of an unlimited supply and a constant quality. It was prepared from freshly collected supernatants by precipitating viral particles in the presence of 6% polyethylene glycol (PEG) 8000. The pellet was resuspended in phosphate buffered saline (PBS) containing 25% FCS. Aliquots were stored at −80° C. Differentiated HepaRG cells or PHH were incubated with the concentrated infectious source, 10-fold diluted in culture medium supplemented with 4% PEG 8000 (Sigma), for 20 h at 37° C. At the end of the incubation, cells were washed three times with the culture medium and maintained in the presence of 2% DMSO and 5×10^−5 M hydrocortisone hemisuccinate and harvested at indicated times.
Competition experiments were performed in 12-well plates. Approximately 1×10^6 cells were first pre-incubated for 30 min with chemically synthesized HBV derived peptides followed by a co-incubation of cells with peptide and virus for 20 h. All competition series were performed at least twice and the results of one representative experiment are shown in each case (see FIGS. 3 to 7).
HepaRG cells were infected either in absence (0 nM) or in the presence of • 1, 5, 25, 100 and 2000 nM of • HBVpreS/2-48^myr(D), • HBVpreS/2-48^myr(C), • HBVpreS/(−11)-48^myr(C), • HBVpreS/2-48^stearoyl(C) and • HBVpreS/(−11)-48^stearoyl(C); or • 0.125; 0.25; 0.5; 0.75 and 1 nM of • HBVpreS/2-48^myr(consensus), • HBVpreS/2-48^stearoyl(consensus), • 1, 5, 25, 100 and 1000 nM of • HBVpreS/2-48^stearoyl(D), • HBVpreS/2-15^stearoyl(D), • HBVpreS/2-21^stearoyl(D), • HBVpreS/2-26^stearoyl(D) and • HBVpreS/2-33^stearoyl(D); or • 1, 5, 25, 100 and 1000 nM of • HBVpreS/2-48^stearoyl(D), • HBVpreS/2-33^stearoyl(D), • HBVpreS/5-33^stearoyl(D), • HBVpreS/5-48^stearoyl(D), • HBVpreS/9-33^stearoyl(D) and • HBVpreS/9-48^stearoyl(D); or • 1, 5, 25, 100 and 1000 nM of • HBVpreS/2-48^stearoyl(D), • HBVpreS/2-48^stearoyl(D-AS^11-15)(D), • HBVpreS/2-48^stearoyl(Ala^11-15)(D), • HBVpreS/2-48^stearoyl(Δ17-21)(D), • HBVpreS/2-48^stearoyl(Ala^17-21)(D); or • 1, 5, 25, 100 and 1000 nM of • HBVpreS/2-48^stearoyl(retroinverso)(D) and • HBVpreS/2-48^stearoyl(Ala^21,23,29,30)(D); or • 1, 5, 25, 100 and 1000 nM of • HBVpreS/2-48^stearoyl(Ala^18)(D), • HBVpreS/2-48^stearoyl(Δ11-15)(D), • HBVpreS/2-48^stearoyl(Ser^13)(D), • HBVpreS/2-48^stearoyl(Arg^11)(D).; or • 50, 100, 150, 250 and 1000 pM […] of • HBVpreS/2-48^myr(C) and • HBVpreS/2-48^stearoyl(C), wherein (C) refers to HBV genotype C Q46K.
The infectious inoculum (HBV of genotype D) and the peptides were incubated overnight. After washing, cells were maintained for another 12 days to allow viral gene expression. Cell culture supernatants from day 8-12 were collected and analyzed for secreted HBSAg using a quantitative commercially available ELISA. HBsAg values from the respective uncompleted infection were set to 100% and the degree of infection inhibition is given in % of the uncompleted infection.

Compound	inhibition of the entry of HBV genotype D by a genotype C derived peptide (cross prevention)	IC90 [nM]	IC50 (of genotype D) [nM]
HBVpreS/2-48^myr(C)	can inhibit the entry of HBV genotype D	~5	
CCCCCCCCCCCCCCCCCC(=O)NCC(=O)N[C@@H](CCC(N)=O)C(=O)N[C@@H](CC(N)=O)C(=O)N[C@@H](CC(C)C)C(=O)N[C@@H](CO)C(=O)N[C@H](C(=O)N[C@@H](CO)C(=O)N[C@@H](CC(N)=O)C(=O)N1CCC[C@H]1C(=O)N[C@@H](CC(C)C)C(=O)NCC(=O)N[C@@H](Cc1ccccc1)C(=O)N[C@@H](Cc1ccccc1)C(=O)N1CCC[C@H]1C(=O)N[C@@H](CC(=O)O)C(=O)N[C@@H](Cc1c[nH]cn1)C(=O)N[C@@H](CCC(N)=O)C(=O)N[C@@H](CC(C)C)C(=O)N[C@@H](CC(=O)O)C(=O)N1CCC[C@H]1C(=O)O)[C@@H](C)O [HBVpreS/2-21^stearoyl]			~8
HBVpreS/2-48^stearoyl(C)		~1	
HBVpreS/2-21^stearoyl(C): stearoylated residues 2 to 21 of genotype C, SEQ ID NO. 13 (GTNLSVPNPLGFFPDHQLDP; not fully specified (N-terminus); also: stearoyl)	can inhibit the entry of HBV genotype D		
HBVpreS/2-48^stearoyl(D): stearoylated residues 2 to 48 of genotype D, SEQ ID NO. 16		~3	
